Source: PMC6969166, “The molecular basis of pyrazinamide activity on Mycobacterium tuberculosis PanD” (Nature Communications, 2020)
Values joined by “and” are separate entries in the source; they are usually repeats but may differ in a detail not shown here. Identical values can stand only once. “Also recorded” adds a separate entry of the source. Like-named read-outs stand apart in the source and are kept apart here.

Legend:
Mtb PanD [1] = molecular target: T1, Mtb PanD (Mycobacterium tuberculosis, UniProt P9WIL3); experiment: biochemical; assay type: biochemical; details: for remaining activity at 312.5 µM / remaining activity at 625 µM / remaining activity at 1250 µM / remaining activity at 2500 µM / remaining activity at 5000 µM / remaining activity at 10000 µM / remaining activity at 20000 µM: read-out: Fractional Activity
T1 construct: The active protein consists of a β chain (Met1-Gly24) and an α chain (Pyr25 to ILE115); we observed the processed active enzyme after cleavage between Gly24 and Ser25; inferred from the pET21c(+) vector and HisTrap purification); made in house; host or cells: Escherichia coli BL21(DE3)

Mtb PanD [2] = molecular target: T1, Mtb PanD; experiment: Isothermal titration calorimetry, wild type; assay type: binding; details: for ΔH / ΔS: mean
Procedure: ITC experiments were performed using a MicroCal iTC200 (GE). Both protein and ligands were in a buffer of 100 mM Tris, pH 7.5. The protein concentration in the cell was 0.5 mM, and the ligand concentration was 20 mM. The titration was performed at 20 °C. The data were analyzed with the Origin 7.0 software and fitted with a single-site binding model.

Mtb cultures = details: cited from earlier work
PanD = test system: PanD; design: method as in PMID 23029336; details: cited from earlier work

T1 sequence (P9WIL3 1-24): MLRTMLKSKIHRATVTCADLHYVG
T1 sequence (P9WIL3 25-139): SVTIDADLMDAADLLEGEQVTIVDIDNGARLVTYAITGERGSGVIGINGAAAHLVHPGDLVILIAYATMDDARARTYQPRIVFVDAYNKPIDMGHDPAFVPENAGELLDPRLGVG

Row | Compound | inhibition of Mtb PanD (Mtb PanD [1]) | remaining activity at 312.5 µM (Mtb PanD [1]; compound conc 0.3125 mM) [%] | remaining activity at 625 µM (Mtb PanD [1]; compound conc 0.625 mM) [%] | remaining activity at 1250 µM (Mtb PanD [1]; compound conc 1.25 mM) [%] | remaining activity at 2500 µM (Mtb PanD [1]; compound conc 2.5 mM) [%] | remaining activity at 5000 µM (Mtb PanD [1]; compound conc 5 mM) [%] | remaining activity at 10000 µM (Mtb PanD [1]; compound conc 10 mM) [%] | remaining activity at 20000 µM (Mtb PanD [1]; compound conc 20 mM) [%] | further results
1 | O=C(O)c1cnc(Cl)cn1 [5-Cl-POA] | no inhibition | 92.8 | 89.8 | 80.2 | 67.7 | 52.9 | 51.6 | 44.3 | 
2 | O=C(O)c1cncc(Cl)n1 [6-Cl-POA, 6-chloropyrazinoic acid] | inhibitor of PanD | 81.8 | 69.3 | 51.7 | 35 | 22.9 | 19.8 | 8.91 | Kd (Mtb PanD [2]; ITC, 20 °C, 100 mM Tris pH 7.5, single-site model, mean of separate experiments): 1090 µM; ΔH (Mtb PanD [2]; ITC, 20 °C, 100 mM Tris pH 7.5): −3300 (100) cal mol^−1; ΔS (Mtb PanD [2]; ITC, 20 °C, 100 mM Tris pH 7.5): 2.2 (0.5) cal mol^−1 deg^−1; Kd (Mtb PanD [2]; ITC, wt, single experiments): 1090 µM and 1140 µM and 1050 µM; ΔS (cal/mol /deg) (Mtb PanD [2]; ITC, wt, single experiments): 2.27 cal/mol /deg and 1.7 cal/mol /deg and 2.71 cal/mol /deg; Ki (Mtb PanD [1]): 1000 µM; mode of inhibition (Mtb PanD [1]): competitive
3 | O=C(O)c1cccnc1 [NA, nicotinic acid] | lack of inhibitory activity; also recorded: None of these compounds inhibited |  |  |  |  |  |  |  | binding in ITC (Mtb PanD [2]; 100 mM Tris pH 7.5): no binding; remaining activity at 312.5 µM (Mtb PanD [1]): 101%; remaining activity at 625 µM (Mtb PanD [1]): 98.1%; remaining activity at 1250 µM (Mtb PanD [1]): 96.6%; remaining activity at 2500 µM (Mtb PanD [1]): 90.2%; remaining activity at 5000 µM (Mtb PanD [1]): 87.2%; remaining activity at 10000 µM (Mtb PanD [1]): 82.2%; remaining activity at 20000 µM (Mtb PanD [1]): 61.4%
4 | O=C(O)c1cnccn1 [POA, pyrazinoic acid] |  | 81.2 | 66.4 | 52.9 | 34.8 | 21.6 | 13.4 | 7.44 | ΔH (Mtb PanD [2]; ITC, 20 °C, 100 mM Tris pH 7.5): -4200 (200) cal mol^−1; ΔS (Mtb PanD [2]; ITC, 20 °C, 100 mM Tris pH 7.5): 0.1 (0.7) cal mol^−1 deg^−1; mode of inhibition (Mtb PanD [1]): competitive with aspartate
5 | NC(=O)c1cnccn1 [PZA, pyrazinamide] | lack of inhibitory activity; also recorded: None of these compounds inhibited | 104 | 105 | 101 | 104 | 101 | 98.7 | 91.5 | minimal inhibitory concentration (Mtb cultures; mildly acidic (<pH6), ref 2 (peer review file list)): 0.4-1.6 mM and 50 – 200 µg/ml; minimum inhibitory concentrations (Mtb cultures; mildly acidic pH): 400 to 1600 µM; activity against Mtb cultures (Mtb cultures; normal media): not active
6 | N[C@@H](CC(=O)O)C(=O)O [aspartate, L-aspartate] |  |  |  |  |  |  |  |  | Km (Mtb PanD [1]): 1080 µM
7 | O=C(O)C(O)C(O)C(=O)O (stereo not shown) [tartrate] |  |  |  |  |  |  |  |  | inhibitor of the enzyme (PanD): known inhibitor
